Laboratory results taken from US20050282755A1, “Compositions having antimicrobial activity and uses thereof” (priority 2004, published 2005).
Converted amounts (≈) assume the structure as drawn. Like-named read-outs stand apart in the source and are kept apart here. Starred links: 1 amine or outer side, 2 acyl side, 3 side chain; linkers in the order of their positions; H or OH if unused. Non-standard residues stand in square brackets, D forms with d. Residues, ends and D or L forms follow the SMILES beside them. *: point of attachment. 1Nal = N[C@@H](Cc1cccc2ccccc12)C(=O)O; Ethylenediamine = C(CN[*:2])N[*:1]; Lauroyl = CCCCCCCCCCCC(=O)*; Decanoyl = CCCCCCCCCC(=O)*; Octanoyl = CCCCCCCC(=O)*; Hexanoyl = CCCCCC(=O)*

Experiments:
Assay type in all cases: cell-based
[1] = test system: Escherichia coli ATCC 25922; test: MIC, NCCLS M7-A6 broth microdilution (Table 9, no superscript)
In short: (§1)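 Broth microdilution in cation-adjusted Mueller Hinton broth, log-phase inoculum giving 5×10^5 to 1×10^6 CFU/milliliter per well. Overnight incubation at 37° C. MIC taken as lowest peptide concentration with no visible turbidity versus a no-peptide control.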

Salmonella dublin (Lane) = test: as above
In short: as §1

[2] = test system: Staphylococcus epidermidis ATCC 12228; test: as above
In short: as §1

[3] = test system: Pseudomonas aeruginosa ATCC 27853; test: as above
In short: as §1

[4] = test system: Staphylococcus aureus ATCC 29213; test: MIC, NCCLS M7-A6 broth microdilution, cation-adjusted Mueller Hinton broth (Table 9, no superscript)
In short: as §1

[5] = test system: Propionibacterium acnes ATCC 6919; test: MIC, agar dilution method NCCLS M11-A6, Brucella agar, anaerobic (Table 9, superscript c); details: ATCC 6919
Method: A bacterial suspension was prepared to allow for a final inoculum on the plate of 1.5×10^8 CFU/milliliter. After the suspension absorbed into the agar surface, the plates were incubated for 48-96 hours at 37° C. in a GasPak anaerobic chamber. The lowest concentration of peptide that contained no colony growth on the agar plate was determined as the MIC. MIC values that utilized this method of MIC determination are indicated in Table 9 with a superscript letter “c.”

[6] = test system: Candida albicans ATCC 18804; test: MIC in yeasts, NCCLS M27-A2 broth microdilution, RPMI 1640 (Table 9, letter e); details: letter e: NCCLS M27-A2 broth microdilution, RPMI 1640
Method: Briefly, RPMI 1640 supplemented with glutamine and phenol red as a pH indicator was used in the broth microdilution method. A 96-well plate was inoculated so that the final inoculum of yeast for each well contained between 0.5×10^3 and 2.5×10^3 CFU/milliliter. […] Plates were incubated for 24 to 48 hours at 37° C. The lowest concentration of peptide that contained no visible growth was determined as the MIC. MIC values that utilized this method of MIC determination are indicated in Table 9 with a subscript letter “e.” “Peptide Number” corresponds to peptide compositions and corresponding designations in Table 3.

[7] = no superscript: NCCLS M7-A6 broth microdilution

| Molecule | MIC E. coli ([1]; ATCC 25922) [µg/mL] | MIC S. dublin (Salmonella dublin (Lane)) [µg/mL] | MIC S. epidermidis ([2]; ATCC 12228) [µg/mL] | MIC P. aeruginosa ([3]; ATCC 27853) [µg/mL] | MIC S. aureus ([4]; ATCC 29213) [µg/mL] | MIC P. acnes [5] | MIC E. coli [1, 7] [µg/mL] | MIC S. dublin (Salmonella dublin (Lane); [7]) [µg/mL] | MIC S. epidermidis [2, 7] [µg/mL] | MIC P. aeruginosa [3, 7] [µg/mL] | MIC C. albicans [6] [e ug/mL] | MIC S. aureus [4, 7] [µg/mL] |
| --- | --- | --- | --- | --- | --- | --- | --- | --- | --- | --- | --- | --- |
| CCCCCCCCCCCC(=O)N[C@@H](C(=O)N[C@H](CCCNC(=N)N)C(=O)N[C@@H](C(=O)N[C@H](CO)C(=O)N[C@H](CCCNC(=N)N)C(=O)N[C@@H](C(=O)NCC(=O)N[C@H](CCCNC(=N)N)C(=O)N[C@H](CO)C(=O)N[C@H](CCCNC(=N)N)C(=O)N[C@H](Cc1c[nH]c2ccccc12)C(=O)N[C@H](CCCNC(=N)N)C(=O)N[C@H](CC(=O)O)C(=O)N[C@H](Cc1c[nH]c2ccccc12)C(=O)N[C@H](CO)C(=O)N[C@H](CCCNC(=N)N)C(=O)N[C@H](CC(N)=O)C(=O)N[C@H](Cc1ccccc1)C(=O)N[C@H](CCSC)C(=O)N[C@H](CCCNC(=N)N)C(=O)N[C@H](C)C(=O)N[C@H](C)C(=O)N[C@@H](CCCCN)C(N)=O)[C@H](C)O)C(C)C)[C@H](C)O [Peptide 80, Lauryl-trvsrtgrsrwrdwsrnfmraaK-NH2] (Lauroyl-[dT][dR][dV][dS][dR][dT]G[dR][dS][dR][dW][dR][dD][dW][dS][dR][dN][dF][dM][dR][dA][dA]K-NH2) | 32 (≈ 10.4 µM) | 16 (≈ 5.22 µM) | 2 (≈ 0.653 µM) | >64 | 16 (≈ 5.22 µM) | >64c ug/mL | – | – | – | – | – | – |
| CCCCCCCCCCCC(=O)N[C@@H](CCCNC(=N)N)C(=O)N[C@@H](Cc1c[nH]c2ccccc12)C(=O)N[C@@H](CCCNC(=N)N)C(=O)N[C@@H](CC(=O)O)C(=O)N[C@H](C(=O)N[C@@H](C)C(=O)N[C@@H](CCCNC(=N)N)C(N)=O)C(C)C [Peptide 105, Lauryl-RWRDVAR-NH2] (Lauroyl-RWRDVAR-NH2) | 32 (≈ 28.1 µM) | >32 | 8 (≈ 7.02 µM) | 32 (≈ 28.1 µM) | 16 (≈ 14 µM) | 32c ug/mL | – | – | – | – | – | – |
| CCCCCCCCCCCC(=O)N[C@@H](Cc1c[nH]c2ccccc12)C(=O)N[C@@H](CCCNC(=N)N)C(=O)N[C@@H](CC(=O)O)C(=O)N[C@H](C(=O)N[C@@H](C)C(=O)N[C@@H](CCCNC(=N)N)C(=O)N[C@@H](CC(N)=O)C(N)=O)C(C)C [Peptide 106, Lauryl-WRDVARN-NH2] (Lauroyl-WRDVARN-NH2) | >64 | >64 | 16 (≈ 14.6 µM) | >64 | 8 (≈ 7.29 µM) | >64c ug/mL | – | – | – | – | – | – |
| CCCCCCCCCCCC(=O)N[C@@H](CCCNC(=N)N)C(=O)N[C@@H](Cc1c[nH]c2ccccc12)C(=O)N[C@@H](CCCNC(=N)N)C(=O)N[C@@H](CC(=O)O)C(=O)N[C@H](C(=O)N[C@@H](C)C(=O)N[C@@H](CCCNC(=N)N)C(=O)N[C@@H](CC(N)=O)C(=O)N[C@@H](Cc1ccccc1)C(=O)N[C@@H](CCSC)C(=O)N[C@@H](CCCNC(=N)N)C(N)=O)C(C)C [Peptide 113, Lauryl-RWRDVARNFMR-NH2] (Lauroyl-RWRDVARNFMR-NH2) | 8 (≈ 4.74 µM) | 16 (≈ 9.48 µM) | 2 (≈ 1.18 µM) | >64 | 4 (≈ 2.37 µM) | >64c ug/mL | – | – | – | – | – | – |
| CCCCCCCCCCCC(=O)N[C@@H](CCCNC(=N)N)C(=O)N[C@@H](CO)C(=O)N[C@@H](CCCNC(=N)N)C(=O)N[C@@H](Cc1cccc2ccccc12)C(=O)N[C@@H](CCCNC(=N)N)C(=O)N[C@@H](CC(=O)O)C(=O)N[C@H](C(=O)N[C@@H](C)C(=O)N[C@@H](CCCNC(=N)N)C(=O)N[C@@H](CC(N)=O)C(=O)N[C@@H](Cc1ccccc1)C(=O)N[C@@H](CCSC)C(=O)N[C@@H](CCCNC(=N)N)C(N)=O)C(C)C [Peptide 149, Lauryl-RSRZRDVARNFMR-NH2 Z = 1-naphthylalanine] (Lauroyl-RSR[1Nal]RDVARNFMR-NH2) | 64 (≈ 32.9 µM) | 32 (≈ 16.5 µM) | 4 (≈ 2.06 µM) | >64 | 16 (≈ 8.24 µM) | 32c ug/mL | – | – | – | – | – | – |
| CCCCCCCCCCCC(=O)N[C@@H](CCCNC(=N)N)C(=O)N[C@@H](CO)C(=O)N[C@@H](CCCNC(=N)N)C(=O)N[C@@H](Cc1c[nH]c2ccccc12)C(=O)N[C@@H](CCCNC(=N)N)C(=O)N[C@@H](CC(=O)O)C(=O)N[C@@H](Cc1cccc2ccccc12)C(=O)N[C@@H](C)C(=O)N[C@@H](CCCNC(=N)N)C(=O)N[C@@H](CC(N)=O)C(=O)N[C@@H](Cc1ccccc1)C(=O)N[C@@H](CCSC)C(=O)N[C@@H](CCCNC(=N)N)C(N)=O [Peptide 150, Lauryl-RSRWRDZARNFMR-NH2 Z = 1-naphthylalanine] (Lauroyl-RSRWRD[1Nal]ARNFMR-NH2) | 64 (≈ 31.5 µM) | 32 (≈ 15.8 µM) | 4 (≈ 1.97 µM) | >64 | 8 (≈ 3.94 µM) | >64c ug/mL | – | – | – | – | – | – |
| CCCCCCCCCCCC(=O)N[C@@H](CCCNC(=N)N)C(=O)N[C@@H](Cc1c[nH]c2ccccc12)C(=O)N[C@@H](CCCNC(=N)N)C(=O)N[C@@H](CC(=O)O)C(=O)N[C@H](C(=O)N[C@@H](C)C(=O)N[C@@H](CCCNC(=N)N)C(=O)N[C@@H](CC(N)=O)C(=O)N[C@@H](Cc1ccccc1)C(=O)N[C@@H](CC(C)C)C(=O)N[C@@H](CCCNC(=N)N)C(N)=O)C(C)C [Peptide 163, Lauryl-RWRDVARNFLR-NH2] (Lauroyl-RWRDVARNFLR-NH2) | 16 (≈ 9.58 µM) | 8 (≈ 4.79 µM) | 8 (≈ 4.79 µM) | >64 | 4 (≈ 2.4 µM) | >64c ug/mL | – | – | – | – | – | – |
| CCCCCCCC(=O)NCCNC(=O)[C@H](CCCNC(=N)N)NC(=O)[C@H](CC(C)C)NC(=O)[C@H](Cc1ccccc1)NC(=O)[C@H](CC(N)=O)NC(=O)[C@H](CCCNC(=N)N)NC(=O)[C@H](C)NC(=O)[C@@H](NC(=O)[C@H](CC(=O)O)NC(=O)[C@H](CCCNC(=N)N)NC(=O)[C@H](Cc1c[nH]c2ccccc12)NC(=O)[C@H](CCCNC(=N)N)NC(=O)[C@H](CO)NC(=O)[C@@H](N)CCCNC(=N)N)C(C)C [Peptide 169, H2N-RSRWRDVARNFLR-Ethylamidooctanyl] (H-RSRWRDVARNFLR-{Ethylenediamine-Octanoyl}; C-terminus assumed) | 2 (≈ 1.05 µM) | 8 (≈ 4.21 µM) | 1 (≈ 0.526 µM) | 4 (≈ 2.1 µM) | 4 (≈ 2.1 µM) | 64c ug/mL | – | – | – | – | – | – |
| CCCCCCCCCC(=O)N[C@H](CCCNC(=N)N)C(=O)N[C@H](CO)C(=O)N[C@H](CCCNC(=N)N)C(=O)N[C@H](Cc1c[nH]c2ccccc12)C(=O)N[C@H](CCCNC(=N)N)C(=O)N[C@H](CC(=O)O)C(=O)N[C@@H](C(=O)N[C@H](C)C(=O)N[C@H](CCCNC(=N)N)C(=O)N[C@H](CC(N)=O)C(=O)N[C@H](Cc1ccccc1)C(=O)N[C@H](CC(C)C)C(=O)N[C@H](CCCNC(=N)N)C(N)=O)C(C)C [Peptide 190, Decanyl-rsrwrdvarnflr-NH2] (Decanoyl-[dR][dS][dR][dW][dR][dD][dV][dA][dR][dN][dF][dL][dR]-NH2) | 4 (≈ 2.12 µM) | – | 2 (≈ 1.06 µM) | 8 (≈ 4.24 µM) | 8 (≈ 4.24 µM) | 4 µg/mL (≈ 2.12 µM) | – | – | – | – | – | – |
| CCCCCC(=O)N[C@@H](CCCNC(=N)N)C(=O)N[C@@H](CO)C(=O)N[C@@H](CCCNC(=N)N)C(=O)N[C@@H](Cc1c[nH]c2ccccc12)C(=O)N[C@@H](CCCNC(=N)N)C(=O)N[C@@H](CC(=O)O)C(=O)N[C@H](C(=O)N[C@@H](C)C(=O)N[C@@H](CCCNC(=N)N)C(=O)N[C@@H](CC(N)=O)C(=O)N[C@@H](Cc1ccccc1)C(=O)N[C@@H](CCSC)C(=O)N[C@@H](CCCNC(=N)N)C(N)=O)C(C)C [Peptide 202, Hexyl-RSRWRDVARNFMR-NH2] (Hexanoyl-RSRWRDVARNFMR-NH2) | – | >64 | – | – | >64 | >64c ug/mL | – | – | – | – | – | – |
| CCCCCCCCCC(=O)N[C@@H](CCCNC(=N)N)C(=O)N[C@@H](CO)C(=O)N[C@@H](CCCNC(=N)N)C(=O)N[C@@H](Cc1c[nH]c2ccccc12)C(=O)N[C@@H](CCCNC(=N)N)C(=O)N[C@@H](CC(=O)O)C(=O)N[C@H](C(=O)N[C@@H](C)C(=O)N[C@@H](CCCNC(=N)N)C(=O)N[C@@H](CC(N)=O)C(=O)N[C@@H](Cc1ccccc1)C(=O)N[C@@H](CCSC)C(=O)N[C@@H](CCCNC(=N)N)C(N)=O)C(C)C [Peptide 204, Decanyl-RSRWRDVARNFMR-NH2] (Decanoyl-RSRWRDVARNFMR-NH2) | 8 (≈ 4.2 µM) | 32 (≈ 16.8 µM) | 2 (≈ 1.05 µM) | 32 (≈ 16.8 µM) | 8 (≈ 4.2 µM) | >64c ug/mL | – | – | – | – | – | – |
| Lauryl-dvarfm-NH2 [Peptide 125] | – | – | – | – | – | – | >64 | >64 | >64 | >64 | >64 | >64 |
| Lauryl-rsrwrdvarfm-NH2 [Peptide 115] | – | – | – | – | – | 4c ug/mL | – | – | – | – | – | – |
